According to patent publication US9410142B2, “Dendrimer-based excipients for the attenuation of protein aggregation” (Massachusetts Institute of Technology, priority 2010, dated 2016):

Molecular target: α-chymotrypsinogen A (aCgn) (Bos taurus, UniProt P00766)
Assay: Preferential interaction with aCgn by vapor pressure osmometry (VPO)
Type: physicochemical, Bovine
Settings: for Γ23/[3] preferential interaction with aCgn: 50 mg/mL aCgn, 20 mM sodium citrate pH 5, maximum dendrimer 0.2 mol/L; for Γexp preferential interaction coefficient of aCgn: 0.17-[…] dendrimer salt, VPO
Protocol: Osmolality measurements were carried out according to the previously described procedure. For improved accuracy, all samples were prepared gravimetrically using a Mettler Toledo balance with a precision of 0.1 mg. Partial molar volume values of the
Stock solutions of both BSA and lysozyme and stock solutions of the cosolutes were each prepared in a 40 mM sodium phosphate buffer, pH 6.0 (aCgn measurements were conducted in 20 mM sodium citrate buffer, pH 3.5 or pH 5.0). Stock solutions of the cosolutes were used so that a series of samples could be easily produced with varying solute concentrations by dilution with water and buffer. The protein stock solutions were further purified by placing the solutions under dialysis for 48 hours at room temperature against two changes of buffer (1 L each). […] To determine the concentration, samples of each stock solution were diluted gravimetrically with water to a final optical density of about 1.0 and the concentration determined spectrophotometrically with a PerkinElmer Lambda 35 UV/Vis spectrometer. It should be noted that the protein stock solutions were stored at 4° C. and used within one week of their preparation.
[formula] A Wescor Vapro® vapor pressure osmometer (model 5520) was used for all osmometry measurements. The instrument was calibrated using 0.1, 0.29, and 1 mol/kg osmolality standards provided by Wescor. Due to slight drifts in the calibration points, the instrument was recalibrated after every four measurements and the thermocouple was cleaned daily using concentrated ammonium hydroxide followed by a rinse with HPLC grade water. […] The data sets for each cosolute included at least 16 individually made solutions (both for the sets with and without the protein). Each sample contained approximately 80 μL of solution (40 μL of diluted cosolute stock solution and 40 μL of the protein stock solution). A minimum of three measurements on each solution were made. If the standard deviation for a particular solution was greater than 2 mmol/kg, more measurements were taken or another sample was prepared. For a given solute, data representing the dependence of osmolality on solute molality were fitted by a quadratic equation, with all fitting parameters floated. Data were weighted by the standard deviation of the individual osmolality measurements for the same solution using the nonlinear fitting program Igor Pro.
To gain further insight into how the modified dendrimer salts inhibit protein-protein interactions, preferential interaction coefficient (Γ23) values at various concentrations were determined, both experimentally via vapor pressure osmometry (VPO) measurements and computationally via MD simulations. The experimental results for the interaction between modified generation 0 PAMAM dendrimers and aCgn are expressed in Table 2, which summarizes the polynomial fit and uncertainty of the experimental data. Theoretical preferential interaction coefficient values were computed from the MD simulation using the procedure outlined in our previous work. Baynes B M and Trout B L (2003) J Phys Chem B 107:14058-14067; Shukla D et al. (2009) J Phys Chem B 113:12546-12554.

SMILES	Γ23/[3] preferential interaction with aCgn	Γexp preferential interaction coefficient of aCgn
N=C(N)NCCNC(=O)CCN(CCC(=O)NCCNC(=N)N)CCN(CCC(=O)NCCNC(=N)N)CCC(=O)NCCNC(=N)N.O=P(O)(O)O.O=P(O)(O)O.O=P(O)(O)O.O=P(O)(O)O.O=P(O)(O)O.O=P(O)(O)O [Gdm(H2PO4)]	−15.8 ± 5.0 mol/mol	−2.9
N=C(N)NCCNC(=O)CCN(CCC(=O)NCCNC(=N)N)CCN(CCC(=O)NCCNC(=N)N)CCC(=O)NCCNC(=N)N.O=S(=O)(O)O.O=S(=O)(O)O.O=S(=O)(O)O [Gdm(SO4)1/2]	−17.0 ± 4.4 mol/mol	−3.1
